Reference: article PMC3485633 (BMC Pharmacology, 2012)

Columns and labels:
D2 receptor [1] = biological target: T1, D2 receptor (Rattus norvegicus, UniProt P61169); assay: [3H]-Spiperone radioligand binding assay, rat striatum membrane homogenate; set-up: species or system Sprague Dawley rats; conditions: read-out: Ki ± SD D2
T1 construct: The prefrontal cortex, striatum and hypothalamus were homogenized in about 6 volumes of ice-cold buffer; from tissue; host or cells: rat striatum membrane homogenate

5HT2A receptor = biological target: T2, 5HT2A receptor (Rattus norvegicus, UniProt P14842); assay: [3H]-Ketanserine radioligand binding assay, rat prefrontal cortex membrane homogenate; set-up: species or system Sprague Dawley rats; conditions: for Ki: read-out: Ki ± SD 5HT2A; for pKi ratio 5HT2A/D2: ratio of pKi at 5HT2A to pKi at D2, rat tissue homogenate
T2 construct: The prefrontal cortex, striatum and hypothalamus were homogenized in about 6 volumes of ice-cold buffer; from tissue; host or cells: rat prefrontal cortex membrane homogenate

H1 receptor = biological target: T3, H1 receptor (Rattus norvegicus, UniProt P31390); assay: [3H]-Pyrilamine radioligand binding assay, rat hypothalamus membrane homogenate; set-up: species or system Sprague Dawley rats; conditions: read-out: Ki ± SD H1
T3 construct: The prefrontal cortex, striatum and hypothalamus were homogenized in about 6 volumes of ice-cold buffer; from tissue; host or cells: rat hypothalamus membrane homogenate

[2] = set-up: method as in PMID 11488257, PMID 22103329; conditions: patients treated with these medications; cited from earlier work
D2 receptor [3] = conditions: read-out: Ki D2 receptor; cited from earlier work

T1 sequence (P61169 whole entry): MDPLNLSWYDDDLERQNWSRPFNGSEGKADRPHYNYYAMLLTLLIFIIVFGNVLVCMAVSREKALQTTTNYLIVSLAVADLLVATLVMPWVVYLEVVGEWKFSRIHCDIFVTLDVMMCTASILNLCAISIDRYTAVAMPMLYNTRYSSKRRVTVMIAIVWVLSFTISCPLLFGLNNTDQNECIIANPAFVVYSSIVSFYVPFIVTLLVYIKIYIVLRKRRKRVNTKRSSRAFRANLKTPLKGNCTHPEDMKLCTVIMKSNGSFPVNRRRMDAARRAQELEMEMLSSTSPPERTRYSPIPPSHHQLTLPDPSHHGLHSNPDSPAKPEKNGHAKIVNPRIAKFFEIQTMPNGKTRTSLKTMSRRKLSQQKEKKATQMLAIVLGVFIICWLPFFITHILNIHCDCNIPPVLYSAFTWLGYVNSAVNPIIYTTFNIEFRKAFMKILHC
T3 sequence (P31390 whole entry): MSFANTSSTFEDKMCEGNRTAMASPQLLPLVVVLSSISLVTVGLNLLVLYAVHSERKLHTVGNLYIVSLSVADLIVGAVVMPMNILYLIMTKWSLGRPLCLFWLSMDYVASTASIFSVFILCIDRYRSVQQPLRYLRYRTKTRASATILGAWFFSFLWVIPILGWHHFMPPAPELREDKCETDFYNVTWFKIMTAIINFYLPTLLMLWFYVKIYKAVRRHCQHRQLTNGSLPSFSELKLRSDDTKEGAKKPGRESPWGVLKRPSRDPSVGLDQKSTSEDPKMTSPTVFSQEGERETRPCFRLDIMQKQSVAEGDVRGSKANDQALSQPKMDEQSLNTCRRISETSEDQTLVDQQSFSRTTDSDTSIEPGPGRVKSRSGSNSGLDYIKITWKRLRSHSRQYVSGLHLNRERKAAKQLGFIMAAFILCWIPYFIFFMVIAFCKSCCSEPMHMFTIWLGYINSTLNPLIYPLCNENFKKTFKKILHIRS
T2 sequence (P14842 whole entry): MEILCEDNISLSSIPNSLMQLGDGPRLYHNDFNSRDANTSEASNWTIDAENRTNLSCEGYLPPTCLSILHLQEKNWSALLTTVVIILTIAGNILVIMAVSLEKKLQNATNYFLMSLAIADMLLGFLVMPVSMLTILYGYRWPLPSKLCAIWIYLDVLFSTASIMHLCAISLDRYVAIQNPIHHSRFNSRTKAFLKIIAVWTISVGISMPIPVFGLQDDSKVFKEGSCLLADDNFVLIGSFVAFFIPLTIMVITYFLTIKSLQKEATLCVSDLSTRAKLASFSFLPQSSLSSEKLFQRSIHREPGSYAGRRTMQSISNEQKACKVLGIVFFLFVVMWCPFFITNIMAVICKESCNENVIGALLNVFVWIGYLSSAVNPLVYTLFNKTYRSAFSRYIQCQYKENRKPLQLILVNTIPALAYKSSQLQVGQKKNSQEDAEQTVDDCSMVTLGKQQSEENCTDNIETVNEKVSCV

Compound | Ki (D2 receptor [1]) [nM] | Ki (5HT2A receptor) [nM] | Ki (H1 receptor) [nM] | pKi ratio 5HT2A/D2 (5HT2A receptor) | weight change in treated patients [2] | Ki (D2 receptor [3]) [nM]
Cc1cc2c(s1)Nc1ccccc1N=C2N1CCCN(C)CC1 [Compound 8a, 2-methyl-4-(4′-methyl-1′,4′-diazepan-1′-yl)-10H-benzo[b]thieno[2,3-e] [1,4]diazepine] | 3940 ± 437 | 787 ± 29.8 | 33.5 ± 7.39 | – | – | –
CCc1cc2c(s1)Nc1ccccc1N=C2N1CCCN(C)CC1 [Compound 8b, 2-ethyl-4-(4′-methyl-1′,4′-diazepan-1′-yl)-10H-benzo[b]thieno[2,3-e] [1,4]diazepine] | 791 ± 83.2 | 81.2 ± 2.43 | 13.6 ± 2.68 | 1.16 | – | –
CCc1cc2c(s1)Nc1ccccc1N=C2N1CCN(C)CC1 [Compound 8c, 2-ethyl-4-(4′-methylpiperazin-1′-yl)-10Hbenzo[b]thieno[2,3-e][1,4]diazepine] | 54.5 ± 12.1 | 3.7 ± 0.74 | 1.95 ± 0.33 | 1.16 | – | –
Clc1ccc2c(c1)C(N1CCNCC1)=Nc1ccccc1O2 [amoxapine] | – | – | – | – | neither weight gain nor weight loss | –
CN1CCN(C2=Nc3ccccc3Oc3ccc(Cl)cc32)CC1 [loxapine] | – | – | – | – | neither weight gain nor weight loss | –
CCN1CCC[C@H]1CNC(=O)c1c(OC)ccc(Br)c1OC [remoxipride] | – | – | – | – | – | 800
